Measured values as given in patent publication US20040254161A1, “New benzothiazine and benzothiadiazine compounds” (priority 2003, published 2004).

Assays:
AMPA receptors = experiment: Excitatory currents induced by AMPA in Xenopus oocytes (two-electrode voltage-clamp); format: cell-based; conditions: Xenopus oocytes injected with rat cerebral cortex poly(A+) mRNA; AMPA 10 μM; 20-24° C., OR2 medium
Procedure: Study of the Excitatory Currents Induced by AMPA in Xenopus oocytes
mRNA's are prepared from cerebral cortex of male Wistar rats by the guanidinium thiocyanate/phenol/chloroform method. The poly (A^+) mRNA's are isolated by chromatography on oligo-dT cellulose and injected at a level of 50 ng per oocyte. The oocytes are incubated for 2 to 3 days at 18° C. to permit expression of the receptors and are then stored at 8-10° C.
Electrophysiological recording is carried out in a Plexiglass® chamber at 20-24° C. in OR2 medium (J. Exp. Zool., 1973, 184, 321-334) by the “voltage-clamp” method using two electrodes, with a third electrode placed in the bath serving as reference.
All the compounds are applied via the incubation medium and the electric current is measured at the end of the application period. AMPA is used in a concentration of 10 μM. For each compound studied, the concentration that doubles (EC2X) or quintuples (EC5X) the intensity of the current induced by AMPA alone (5 to 50 nA) is determined.

SMILES	melting point [°C]	EC2X (concentration that doubles the intensity of the current induced by AMPA alone) (AMPA receptors) [µM]	EC5X (concentration that quintuples the intensity of the current induced by AMPA alone) (AMPA receptors) [µM]
CC(C)S(=O)(=O)NCc1cccc(Oc2ccc3c(c2)S(=O)(=O)NC2CCCN32)c1 (stereo not drawn) [Example 18, N-{3-[(5,5-Dioxido-2,3,3a,4-tetrahydro-1H-pyrrolo[2,1-c][1,2,4]-benzothiadiazin-7-yl)oxy]benzyl}propane-2-sulphonamide]	112 to 118	–	–
O=S1(=O)NC2CCCN2c2ccc(Oc3cccc(CNS(=O)(=O)C(F)(F)F)c3)cc21 (stereo not drawn) [Example 9, N-{3-[(5,5-Dioxido-2,3,3a,4-tetrahydro-1H-pyrrolo[2,1-c][1,2,4]-benzothiadiazin-7-yl)oxy]benzyl}(trifluoro)methanesulphonamide]	104 to 113	–	–
CS(=O)(=O)NCc1ccc(Oc2ccc3c(c2)S(=O)(=O)NC2CCCN32)cc1 (stereo not drawn) [Example 21, N-{4-[(5,5-Dioxido-2,3,3a,4-tetrahydro-1H-pyrrolo[2,1-c][1,2,4]-benzothiadiazin-7-yl)oxy]benzyl}methanesulphonamide]	–	0.1	0.56
Cl.NCc1cccc(Oc2ccc3c(c2)S(=O)(=O)NC2CCCN32)c1 (stereo not drawn) [Example 1, {3-[(5,5-Dioxido-2,3,3a,4-tetrahydro-1H-pyrrolo[2,1-c][1,2,4]-benzothiadiazin-7-yl)oxy]phenyl}methanamine hydrochloride]	–	3.5	9.2
CC(=O)NCc1cccc(Oc2ccc3c(c2)S(=O)(=O)NC2CCCN32)c1 (stereo not drawn) [Example 3, N-{3-[(5,5-Dioxido-2,3,3a,4-tetrahydro-1H-pyrrolo[2,1-c][1,2,4]-benzothiadiazin-7-yl)oxy]benzyl}acetamide]	58	–	–
CS(=O)(=O)NCc1cccc(Oc2ccc3c(c2)S(=O)(=O)NC2CCCN32)c1 (stereo not drawn) [Example 2, N-{3-[(5,5-Dioxido-2,3,3a,4-tetrahydro-1H-pyrrolo[2,1-c][1,2,4]-benzothiadiazin-7-yl)oxy]benzyl}methanesulphonamide]	–	0.35	2.6
